BindingDB's records for doi:10.1016/j.bmcl.2006.12.028 (Sapienza University of Rome, 2007)
pIC50: −log10 of the molar value.

Legend:
Histone deacetylase = Histone deacetylase (Zea mays, UniProt Q9ZTP8); experiment: Inhibition of maize HD1-B (mean)
Histone deacetylase 1 = Histone deacetylase 1 (Mus musculus, UniProt O09106); experiment: Inhibition of mouse HDAC1 (mean)
Histone deacetylase 2b = molecular target: T1, Histone deacetylase 2b (Zea mays, UniProt Q94F81); experiment: Inhibition of maize HD2 (mean)
T1 sequence (Q94F81 whole entry): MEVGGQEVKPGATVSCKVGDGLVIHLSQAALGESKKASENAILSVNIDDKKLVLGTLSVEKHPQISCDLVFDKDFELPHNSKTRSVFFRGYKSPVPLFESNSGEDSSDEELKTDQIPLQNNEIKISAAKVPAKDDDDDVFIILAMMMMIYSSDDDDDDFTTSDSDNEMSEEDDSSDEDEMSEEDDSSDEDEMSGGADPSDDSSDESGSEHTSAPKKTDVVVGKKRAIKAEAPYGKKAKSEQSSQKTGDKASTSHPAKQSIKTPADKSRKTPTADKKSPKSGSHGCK

[1] = molecular target: Histone deacetylase HD1-A (Zea mays); experiment: Inhibition of maize HD1-A (mean)

Histone deacetylase 1, sequence (O09106 whole entry): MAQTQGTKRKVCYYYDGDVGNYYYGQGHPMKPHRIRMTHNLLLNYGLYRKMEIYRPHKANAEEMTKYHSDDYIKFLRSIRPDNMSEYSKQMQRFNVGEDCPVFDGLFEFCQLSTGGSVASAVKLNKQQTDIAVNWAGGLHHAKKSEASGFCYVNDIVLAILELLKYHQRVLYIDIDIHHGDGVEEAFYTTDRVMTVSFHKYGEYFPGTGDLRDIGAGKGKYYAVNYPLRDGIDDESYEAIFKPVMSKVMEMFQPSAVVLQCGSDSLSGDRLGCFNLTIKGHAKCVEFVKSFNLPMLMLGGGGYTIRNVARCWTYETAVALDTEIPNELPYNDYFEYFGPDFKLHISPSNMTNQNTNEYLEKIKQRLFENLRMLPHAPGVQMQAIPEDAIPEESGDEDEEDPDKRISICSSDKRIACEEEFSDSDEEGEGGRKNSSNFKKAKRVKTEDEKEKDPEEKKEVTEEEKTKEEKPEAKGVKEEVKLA
Histone deacetylase, sequence (Q9ZTP8 whole entry): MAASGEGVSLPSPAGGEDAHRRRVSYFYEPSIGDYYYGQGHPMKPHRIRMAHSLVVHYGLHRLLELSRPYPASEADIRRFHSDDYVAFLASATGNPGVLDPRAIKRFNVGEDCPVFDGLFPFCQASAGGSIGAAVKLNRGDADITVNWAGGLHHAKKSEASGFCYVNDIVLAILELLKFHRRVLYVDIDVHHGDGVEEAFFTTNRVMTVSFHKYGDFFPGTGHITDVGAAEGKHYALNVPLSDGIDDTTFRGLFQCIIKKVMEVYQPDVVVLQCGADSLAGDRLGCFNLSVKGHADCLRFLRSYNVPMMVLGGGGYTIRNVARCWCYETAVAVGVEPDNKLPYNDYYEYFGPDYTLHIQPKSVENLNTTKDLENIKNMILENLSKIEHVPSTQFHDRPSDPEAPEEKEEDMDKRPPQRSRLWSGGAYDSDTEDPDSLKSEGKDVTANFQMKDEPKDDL

SMILES	pIC50 (Histone deacetylase)	pIC50 (Histone deacetylase 1)	pIC50 (Histone deacetylase 2b)	pIC50 [1]
O=C(CCCCSc1nc(-c2cccc(Cl)c2)cc(=O)[nH]1)NO	7.95	7.44	7.77	
O=C(CCCCSc1nc(-c2ccc(Cl)cc2)cc(=O)[nH]1)NO	7.95	7.29	7.77	8.55
O=C(CCCCCCC(=O)Nc1ccccc1)NO [Zolinza]			7.31	
